The record followed here is ChEMBL document CHEMBL4043168, “The design and SAR of a novel series of 2-aminopyridine based LRRK2 inhibitors” (Bioorg Med Chem Lett, 2017).

Test [1] concerns the target Phosphatidylinositol 5-phosphate 4-kinase type-2 gamma (Homo sapiens) (UniProt Q8TBX8). The experiment in a line: Inhibition of PIP4K2C ATP binding site (TLVIKEVSSEDIADMHSNLSNYHQYIVK) in human PBMC at 1 uM.
Test [2] deals with Ribosomal protein S6 kinase alpha-1 (Homo sapiens) (UniProt Q15418). The experiment in a line: Inhibition of RSK1 conserved Lys2 (DLKPENILLDEEGHIK) in human PBMC at 1 uM. Particulars: pooled result: one value given for 4 cell lines, strains, targets or settings.
Sequence of Ribosomal protein S6 kinase alpha-1 (Homo sapiens) (Q15418 whole entry): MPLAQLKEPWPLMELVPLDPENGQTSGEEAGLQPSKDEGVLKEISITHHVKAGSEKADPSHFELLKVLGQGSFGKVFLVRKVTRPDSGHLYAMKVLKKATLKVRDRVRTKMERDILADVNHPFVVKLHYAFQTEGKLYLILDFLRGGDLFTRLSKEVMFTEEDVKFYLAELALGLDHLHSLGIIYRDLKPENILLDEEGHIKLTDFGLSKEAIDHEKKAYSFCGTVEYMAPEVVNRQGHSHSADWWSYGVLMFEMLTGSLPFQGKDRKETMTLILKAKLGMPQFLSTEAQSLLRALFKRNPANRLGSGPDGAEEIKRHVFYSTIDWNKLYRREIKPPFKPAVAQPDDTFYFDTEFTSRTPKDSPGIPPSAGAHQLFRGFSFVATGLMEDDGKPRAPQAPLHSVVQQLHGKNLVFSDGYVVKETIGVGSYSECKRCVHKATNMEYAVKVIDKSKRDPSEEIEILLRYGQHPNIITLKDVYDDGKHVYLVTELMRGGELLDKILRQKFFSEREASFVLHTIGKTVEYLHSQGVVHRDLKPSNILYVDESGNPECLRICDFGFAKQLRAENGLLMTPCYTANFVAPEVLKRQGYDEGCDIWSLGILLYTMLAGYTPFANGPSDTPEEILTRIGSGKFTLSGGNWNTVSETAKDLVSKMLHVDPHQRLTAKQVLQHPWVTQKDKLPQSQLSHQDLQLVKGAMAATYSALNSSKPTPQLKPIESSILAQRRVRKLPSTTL
For test [3], the target named is Serine/threonine-protein kinase Sgk3 (Homo sapiens) (UniProt Q96BR1). The test can be described thus: Inhibition of SGK3 conserved Lys1 (FYAVKVLQK) in human PBMC at 1 uM.
Sequence of Serine/threonine-protein kinase Sgk3 (Homo sapiens) (Q96BR1 whole entry): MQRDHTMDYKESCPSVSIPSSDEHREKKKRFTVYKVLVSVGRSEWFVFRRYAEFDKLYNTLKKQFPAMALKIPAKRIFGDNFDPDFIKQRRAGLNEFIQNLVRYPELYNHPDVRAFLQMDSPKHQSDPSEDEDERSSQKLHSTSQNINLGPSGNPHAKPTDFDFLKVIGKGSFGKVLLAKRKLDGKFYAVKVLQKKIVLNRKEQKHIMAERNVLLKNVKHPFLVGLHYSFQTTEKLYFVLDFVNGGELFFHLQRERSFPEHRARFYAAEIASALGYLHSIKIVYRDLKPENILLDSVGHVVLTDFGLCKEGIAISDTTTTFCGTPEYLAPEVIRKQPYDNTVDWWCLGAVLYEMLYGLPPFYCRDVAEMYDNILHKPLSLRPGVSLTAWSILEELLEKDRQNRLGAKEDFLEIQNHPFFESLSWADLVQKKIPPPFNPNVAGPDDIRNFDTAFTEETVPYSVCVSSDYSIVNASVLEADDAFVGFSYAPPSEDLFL
In test [4] the target is Inhibitor of nuclear factor kappa-B kinase subunit beta (Homo sapiens) (UniProt O14920). The test can be described thus: Inhibition of IKKb conserved Lys2 (DLKPENIVLQQGEQR) in human PBMC at 0.1 uM.
Sequence of Inhibitor of nuclear factor kappa-B kinase subunit beta (Homo sapiens) (O14920 whole entry): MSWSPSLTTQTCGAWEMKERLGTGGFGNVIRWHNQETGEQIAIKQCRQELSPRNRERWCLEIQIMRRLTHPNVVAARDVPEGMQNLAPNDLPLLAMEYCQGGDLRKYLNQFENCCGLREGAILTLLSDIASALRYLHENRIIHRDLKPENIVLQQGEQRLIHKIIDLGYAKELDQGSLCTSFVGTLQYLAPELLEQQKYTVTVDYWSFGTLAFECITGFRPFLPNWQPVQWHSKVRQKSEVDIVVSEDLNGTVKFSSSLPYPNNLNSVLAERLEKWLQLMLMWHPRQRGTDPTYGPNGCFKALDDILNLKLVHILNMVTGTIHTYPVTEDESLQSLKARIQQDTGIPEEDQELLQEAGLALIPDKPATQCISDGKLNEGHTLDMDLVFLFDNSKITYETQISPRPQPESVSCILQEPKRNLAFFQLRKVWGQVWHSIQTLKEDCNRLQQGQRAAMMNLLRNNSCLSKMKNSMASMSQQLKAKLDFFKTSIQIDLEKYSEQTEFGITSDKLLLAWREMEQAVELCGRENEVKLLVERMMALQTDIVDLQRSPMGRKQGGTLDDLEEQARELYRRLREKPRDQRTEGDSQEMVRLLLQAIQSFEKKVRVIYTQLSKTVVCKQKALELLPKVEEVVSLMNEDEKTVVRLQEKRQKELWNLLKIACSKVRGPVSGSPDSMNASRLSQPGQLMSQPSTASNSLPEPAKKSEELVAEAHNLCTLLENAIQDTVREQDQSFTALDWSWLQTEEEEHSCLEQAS
Test [5] concerns the target T1, Mitogen-activated protein kinase kinase kinase 6 (Homo sapiens) (UniProt O95382).
T1 sequence (whole entry): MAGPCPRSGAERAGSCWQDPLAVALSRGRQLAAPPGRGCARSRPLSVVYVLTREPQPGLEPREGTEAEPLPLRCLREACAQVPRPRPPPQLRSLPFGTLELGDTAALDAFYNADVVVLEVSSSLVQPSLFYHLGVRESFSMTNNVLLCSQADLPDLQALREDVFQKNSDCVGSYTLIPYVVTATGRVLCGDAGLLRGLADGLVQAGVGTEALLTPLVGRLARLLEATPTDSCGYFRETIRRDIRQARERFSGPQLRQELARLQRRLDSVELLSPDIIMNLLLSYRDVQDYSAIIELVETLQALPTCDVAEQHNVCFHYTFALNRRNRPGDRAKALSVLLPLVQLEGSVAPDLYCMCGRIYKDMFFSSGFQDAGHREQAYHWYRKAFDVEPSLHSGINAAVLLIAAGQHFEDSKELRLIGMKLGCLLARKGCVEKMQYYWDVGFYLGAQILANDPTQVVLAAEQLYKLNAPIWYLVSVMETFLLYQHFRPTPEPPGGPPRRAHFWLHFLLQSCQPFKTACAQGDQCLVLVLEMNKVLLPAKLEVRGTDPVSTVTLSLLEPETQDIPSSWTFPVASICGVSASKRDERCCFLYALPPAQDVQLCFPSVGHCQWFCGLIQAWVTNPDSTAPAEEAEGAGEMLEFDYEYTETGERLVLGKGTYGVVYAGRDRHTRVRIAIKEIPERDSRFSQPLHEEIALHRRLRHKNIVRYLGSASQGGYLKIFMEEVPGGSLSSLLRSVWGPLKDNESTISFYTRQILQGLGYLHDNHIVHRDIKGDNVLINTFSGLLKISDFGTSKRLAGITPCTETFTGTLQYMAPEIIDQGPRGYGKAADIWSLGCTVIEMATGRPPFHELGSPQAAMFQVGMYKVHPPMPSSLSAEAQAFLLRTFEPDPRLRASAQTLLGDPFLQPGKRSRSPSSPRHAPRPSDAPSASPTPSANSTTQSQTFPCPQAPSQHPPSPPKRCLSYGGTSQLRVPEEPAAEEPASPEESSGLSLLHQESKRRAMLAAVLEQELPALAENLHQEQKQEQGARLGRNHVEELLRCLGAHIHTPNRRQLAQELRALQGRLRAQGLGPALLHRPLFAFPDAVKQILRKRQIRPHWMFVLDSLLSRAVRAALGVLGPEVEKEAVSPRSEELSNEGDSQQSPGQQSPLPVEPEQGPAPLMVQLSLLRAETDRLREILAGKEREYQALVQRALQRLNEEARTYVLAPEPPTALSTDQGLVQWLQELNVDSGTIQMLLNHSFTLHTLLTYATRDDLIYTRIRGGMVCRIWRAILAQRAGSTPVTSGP
The test can be described thus: Inhibition of MAP3K6 conserved Lys2 (DIKGDNVLINTFSGLLK) in human PBMC at 0.1 uM.

Test [6] deals with T2, Serine/threonine-protein kinase 4 (Homo sapiens) (UniProt Q13043).
T2 sequence (whole entry): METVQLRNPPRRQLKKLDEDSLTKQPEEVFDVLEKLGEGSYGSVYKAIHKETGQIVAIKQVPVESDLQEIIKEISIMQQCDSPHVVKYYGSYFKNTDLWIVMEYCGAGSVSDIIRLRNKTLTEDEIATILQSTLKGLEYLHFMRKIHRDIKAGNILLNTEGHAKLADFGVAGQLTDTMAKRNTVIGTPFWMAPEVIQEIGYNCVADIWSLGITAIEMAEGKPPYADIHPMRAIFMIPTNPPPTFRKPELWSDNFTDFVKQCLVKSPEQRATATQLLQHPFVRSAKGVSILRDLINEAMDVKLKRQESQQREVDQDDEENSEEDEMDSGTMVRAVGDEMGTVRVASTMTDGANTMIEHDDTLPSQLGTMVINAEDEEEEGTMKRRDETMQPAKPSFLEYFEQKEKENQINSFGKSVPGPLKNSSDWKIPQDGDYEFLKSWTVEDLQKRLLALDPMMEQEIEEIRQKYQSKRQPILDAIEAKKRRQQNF
The test can be described thus: Inhibition of MST1 conserved Lys1 ETGQIVAIKQVPVESDLQEIIK in human PBMC at 0.1 uM.

Test [7] concerns the target T3, Serine/threonine-protein kinase 3 (Homo sapiens) (UniProt Q13188).
T3 sequence (whole entry): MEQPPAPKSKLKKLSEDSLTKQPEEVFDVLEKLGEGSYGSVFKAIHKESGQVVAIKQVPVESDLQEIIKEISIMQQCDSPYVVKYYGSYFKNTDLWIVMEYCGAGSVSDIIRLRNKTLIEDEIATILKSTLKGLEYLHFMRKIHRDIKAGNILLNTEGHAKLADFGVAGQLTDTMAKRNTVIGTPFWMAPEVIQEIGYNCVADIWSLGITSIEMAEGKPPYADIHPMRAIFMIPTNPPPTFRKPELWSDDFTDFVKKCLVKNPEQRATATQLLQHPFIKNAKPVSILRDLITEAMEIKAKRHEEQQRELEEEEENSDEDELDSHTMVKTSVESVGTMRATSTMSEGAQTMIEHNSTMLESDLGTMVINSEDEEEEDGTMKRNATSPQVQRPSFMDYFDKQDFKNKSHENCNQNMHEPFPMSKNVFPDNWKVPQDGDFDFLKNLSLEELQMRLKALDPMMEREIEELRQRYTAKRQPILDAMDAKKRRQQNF
The test can be described thus: Inhibition of MST2 conserved Lys1 (ESGQVVAIKQVPVESDLQEIIK) in human PBMC at 0.1 uM.

Test [8] addresses Serine/threonine-protein kinase 26 (Homo sapiens) (UniProt Q9P289). The test can be described thus: Inhibition of MST4 conserved Lys2 (DIKAANVLLSEQGDVK) in human PBMC at 0.1 uM.
The target of test [9] is Ribosomal protein S6 kinase alpha-3 (Homo sapiens) (UniProt P51812). The experiment in a line: Inhibition of RSK2 conserved Lys2 (DLKPENILLDEEGHIK) in human PBMC at 0.1 uM.
Sequence of Ribosomal protein S6 kinase alpha-3 (Homo sapiens) (P51812 whole entry): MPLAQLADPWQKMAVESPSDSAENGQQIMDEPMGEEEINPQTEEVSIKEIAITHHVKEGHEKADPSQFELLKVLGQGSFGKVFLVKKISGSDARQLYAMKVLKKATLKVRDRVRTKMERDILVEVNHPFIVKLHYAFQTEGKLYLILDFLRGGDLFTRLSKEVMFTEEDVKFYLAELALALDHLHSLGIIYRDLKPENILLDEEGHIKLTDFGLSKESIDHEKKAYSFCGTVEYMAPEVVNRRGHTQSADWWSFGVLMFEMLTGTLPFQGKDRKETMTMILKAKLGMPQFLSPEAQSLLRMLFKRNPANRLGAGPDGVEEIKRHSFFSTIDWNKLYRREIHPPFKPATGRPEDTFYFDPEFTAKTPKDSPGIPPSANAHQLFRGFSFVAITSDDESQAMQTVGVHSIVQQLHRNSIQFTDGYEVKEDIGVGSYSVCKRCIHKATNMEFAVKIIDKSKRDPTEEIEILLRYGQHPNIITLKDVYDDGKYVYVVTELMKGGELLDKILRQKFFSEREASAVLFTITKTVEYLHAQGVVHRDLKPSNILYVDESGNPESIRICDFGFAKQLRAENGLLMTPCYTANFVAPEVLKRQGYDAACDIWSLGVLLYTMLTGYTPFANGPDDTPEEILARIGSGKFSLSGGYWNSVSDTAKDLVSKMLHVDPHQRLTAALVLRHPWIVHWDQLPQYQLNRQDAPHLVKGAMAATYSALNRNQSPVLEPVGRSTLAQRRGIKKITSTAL

Each structure is given as a SMILES string.

Sequence of Serine/threonine-protein kinase 26 (Homo sapiens) (Q9P289 2-416 limits assumed): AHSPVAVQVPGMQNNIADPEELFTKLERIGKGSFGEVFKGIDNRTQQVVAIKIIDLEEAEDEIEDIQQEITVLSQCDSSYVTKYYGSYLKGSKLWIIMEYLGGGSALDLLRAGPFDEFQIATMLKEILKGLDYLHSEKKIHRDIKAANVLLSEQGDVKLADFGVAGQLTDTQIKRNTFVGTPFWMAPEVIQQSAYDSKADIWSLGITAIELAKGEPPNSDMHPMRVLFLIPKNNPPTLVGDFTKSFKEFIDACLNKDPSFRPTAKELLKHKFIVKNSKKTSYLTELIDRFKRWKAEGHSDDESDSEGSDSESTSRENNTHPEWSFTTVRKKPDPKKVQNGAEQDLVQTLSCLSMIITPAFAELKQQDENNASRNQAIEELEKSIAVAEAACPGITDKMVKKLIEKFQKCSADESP
Sequence of Phosphatidylinositol 5-phosphate 4-kinase type-2 gamma (Homo sapiens) (Q8TBX8 whole entry): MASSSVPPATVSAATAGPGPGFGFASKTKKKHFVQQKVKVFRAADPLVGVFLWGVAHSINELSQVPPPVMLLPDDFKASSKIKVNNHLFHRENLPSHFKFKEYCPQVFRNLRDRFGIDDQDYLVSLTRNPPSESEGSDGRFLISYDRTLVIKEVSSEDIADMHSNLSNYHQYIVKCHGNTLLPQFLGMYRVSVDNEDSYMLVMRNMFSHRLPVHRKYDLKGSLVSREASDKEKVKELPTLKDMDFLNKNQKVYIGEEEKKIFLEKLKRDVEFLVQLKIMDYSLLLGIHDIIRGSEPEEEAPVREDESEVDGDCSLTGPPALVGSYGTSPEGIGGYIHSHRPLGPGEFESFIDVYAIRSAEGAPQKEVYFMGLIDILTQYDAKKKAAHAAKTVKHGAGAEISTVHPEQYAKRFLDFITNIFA

The inhibition is the change of the read-out against control, counted positive when it falls. In the case of `CC(C)n1cc(-c2cc(-c3ccc(CN4CCOCC4)cc3)cnc2N)nn1`, the inhibition in [1] is 6.4%; in test [2], 10.2%; in test [3], -2.2%; in [4], 1.5%; in [5] it was -0.5%; in [6] it was -6.6%. In addition, the inhibition in [7] is 7.7%; in [8], 0.5%; in test [9], 11.8%.
